Counter-ions that a name gives are not always drawn.
Experiments:
Assay in all cases: Assay B: in vitro antibacterial activity, broth microdilution MIC (NCCLS)
Format in all cases: cell-based
[1] = system: Enterococcus faecalis PIU 1967; details: Table 2, Assay B, cation-adjusted Mueller Hinton broth, 35° C., 16 to 20 hr; code B = Enterococcus faecalis PIU 1967; unit assumed
Experimental: (§1) Assay B. Determination of Biological Activity In Vitro Assay of Antibacterial Activity
(§2) Representative compounds of the invention were assayed in vitro for antibacterial activity. The susceptibilities of aerobic, nonfastidious species were determined visually by broth microdilution as described by the National Committee for Clinical Laboratory Standards (NCCLS) (National Committee for Clinical Laboratory Standards. 1997. Methods for dilution antimicrobial susceptibility tests for bacteria that grow aerobically. Approved standard M7-A4. National Committee for Clinical Laboratory Standards. Wayne, Pa.). In brief, serial two-fold dilutions of test compounds were made in cation-adjusted Mueller Hinton broth at two-times the final concentration. Inocula were prepared from overnight cultures of test strains. Tests were inoculated with a suspension of bacteria in Mueller Hinton broth to achieve a final density of approximately 5×10^5 CFU/mL. Tests were incubated at 35° C. in ambient air for 16 to 20 hr. Minimum Inhibitory Concentrations (MICs) were determined as the lowest drug concentration completely inhibiting growth. Ciprofloxacin was included as a control. For testing S. pneumoniae, the cation-adjusted Mueller Hinton broth was supplemented with 3% lysed horse blood and the incubation period was extended to 20 to 24 hr. For testing H. influenzae, the cation-adjusted Mueller Hinton broth was supplemented with 5 g/L yeast extract, […] and 15 mg/L NAD and incubation was extended to 20 to 24 hr..

Escherichia coli JUHL = details: Table 2, Assay B, cation-adjusted Mueller Hinton broth, 35° C., 16 to 20 hr; code D = Escherichia coli JUHL; unit assumed
Experimental: as §1, §2

[2] = system: Haemophilus influenzae DILL AMP R; details: Table 2, Assay B, Mueller Hinton broth with yeast extract, hematin and NAD, 20 to 24 hr; code E = Haemophilus influenzae DILL AMP R; unit assumed
Experimental: as §1, §2

[3] = system: Staphylococcus aureus ATCC 6538P; details: Table 2, Assay B, cation-adjusted Mueller Hinton broth, 35° C., 16 to 20 hr; code A = Staphylococcus aureus ATCC 6538P; unit assumed
Experimental: as §1, §2

[4] = system: Streptococcus pneumoniae ATCC 6303; details: Table 2, Assay B, Mueller Hinton broth with 3% lysed horse blood, 20 to 24 hr; code F = Streptococcus pneumoniae ATCC 6303; unit assumed
Experimental: as §1, §2

| SMILES | Antibacterial Activity (MIC's), B [1] [µg/mL] | Antibacterial Activity (MIC's), D (Escherichia coli JUHL) [µg/mL] | Antibacterial Activity (MIC's), E [2] [µg/mL] | Antibacterial Activity (MIC's), A [3] [µg/mL] | Antibacterial Activity (MIC's), F [4] [µg/mL] |
| --- | --- | --- | --- | --- | --- |
| CC1(C)CCc2cc(-c3cc4c(cc3F)c(=O)c(C(=O)O)cn4C3CC3)sc2C1O (stereo not shown) [Example 342, 1-cyclopropyl-6-fluoro-7-(7-hydroxy-6,6-dimethyl-4,5,6,7-tetrahydro-1-benzothien-2-yl)-4-oxo-1,4-dihydroquinoline-3-carboxylic acid] | 0.25 | 0.5 | 0.25 | 0.03 | 0.125 |
| COc1c(-c2cc3c(s2)CCCC3)ccc2c(=O)c(C(=O)O)cn(C3CC3)c12 [Example 243, 1-cyclopropyl-8-methoxy-4-oxo-7-(4,5,6,7-tetrahydro-1-benzothien-2-yl)-1,4-dihydro-3-quinolinecarboxylic acid] | 0.25 | 1 | 0.25 | 0.015 | 1 |
| COc1c(-c2cc3c(s2)CC(C)(C)CC3)ccc2c(=O)c(C(=O)O)cn(C3CC3)c12 [Example 236, 1-cyclopropyl-7-(6,6-dimethyl-4,5,6,7-tetrahydro-1-benzothien-2-yl)-8-methoxy-4-oxo-1,4-dihydro-3-quinolinecarboxylic acid] | 1 | 4 | 0.5 | 0.125 | 4 |
| COc1c(-c2cc3c(s2)C(O)C(C)(C)CC3)ccc2c(=O)c(C(=O)O)cn(C3CC3)c12 (stereo not shown) [Example 241, 1-cyclopropyl-7-(7-hydroxy-6,6-dimethyl-4,5,6,7-tetrahydro-1-benzothien-2-yl)-8-methoxy-4-oxo-1,4-dihydro-3-quinolinecarboxylic acid] | 0.25 | 1 | 0.25 | 0.015 | 1 |
| COc1c(-c2cc3c(s2)CCC(F)(F)C3N)ccc2c(=O)c(C(=O)O)cn(C3CC3)c12 (stereo not shown) [Example 206, 7-(4-amino-5,5-difluoro-4,5,6,7-tetrahydro-1-benzothien-2-yl)-1-cyclopropyl-8-methoxy-4-oxo-1,4-dihydro-3-quinolinecarboxylic acid] | 0.125 | 1 | 0.5 | 0.03 | 0.5 |
| Cl.NC1CCCc2cc(-c3cc(F)c4c(=O)c(C(=O)O)cn(C5CC5)c4c3F)sc21 (stereo not shown) [Example 326, 7-(7-amino-4,5,6,7-tetrahydro-1-benzothien-2-yl)-1-cyclopropyl-5,8-difluoro-4-oxo-1,4-dihydroquinoline-3-carboxylic acid hydrochloride] | 0.25 | 0.125 | 0.015 | 0.125 | 0.125 |
| COc1c(-c2cc3c(s2)C(N)CC(C)(C)C3)ccc2c(=O)c(C(=O)O)cn(C3CC3)c12.Cl (stereo not shown) [Example 268, 7-(7-amino-5,5-dimethyl-4,5,6,7-tetrahydro-1-benzothien-2-yl)-1-cyclopropyl-8-methoxy-4-oxo-1,4-dihydroquinoline-3-carboxylic acid hydrochloride] | 0.25 | 0.5 | 0.25 | 0.03 | 0.06 |
| O=C(O)c1cn(C2CC2)c2cc(-c3cc4c(s3)CCCC4O)c(F)cc2c1=O (stereo not shown) [Example 296, 1-cyclopropyl-6-fluoro-7-(4-hydroxy-4,5,6,7-tetrahydro-1-benzothien-2-yl)-4-oxo-1,4-dihydroquinoline-3-carboxylic acid] | 0.25 | 0.5 | 0.06 | ≤ 0.004 | 0.5 |
| COc1c(-c2cc3c(s2)CCC(=NOCc2ccccc2)C3)ccc2c(=O)c(C(=O)O)cn(C3CC3)c12 [Example 79, 7-((5E/Z)-5-((benzyloxy)imino)-4,5,6,7-tetrahydro-1-benzothien-2-yl)-1-cyclopropyl-8-methoxy-4-oxo-1,4-dihydro-3-quinolinecarboxylic acid] | 1 | 4 | 1 | 0.125 | 0.5 |
| CNC1CCCc2sc(-c3nc4c(cc3F)c(=O)c(C(=O)O)cn4C3CC3)cc21 (stereo not shown) [Example 108, 1-cyclopropyl-6-fluoro-7-(4-(methylamino)-4,5,6,7-tetrahydro-1-benzothien-2-yl)-4-oxo-1,4-dihydro[1,8]naphthyridine-3-carboxylic acid hydrochloride] | 1 | 0.03 | 0.008 | 0.015 | 0.25 |
| O=C(O)c1cn(C2CC2)c2cc(-c3cc4c(s3)CCCC4O)ccc2c1=O (stereo not shown) [Example 281, 1-cyclopropyl-7-(4-hydroxy-4,5,6,7-tetrahydro-1-benzothien-2-yl)-4-oxo-1,4-dihydroquinoline-3-carboxylic acid] | 0.125 | 0.125 | 0.06 | 0.03 | 0.25 |
| COc1c(-c2cc3c(s2)C(N)CN(S(C)(=O)=O)C3)ccc2c(=O)c(C(=O)O)cn(C3CC3)c12 (stereo not shown) [Example 230, 7-(7-amino-5-(methylsulfonyl)-4,5,6,7-tetrahydrothieno[3,2-c]pyridin-2-yl)-1-cyclopropyl-8-methoxy-4-oxo-1,4-dihydro-3-quinolinecarboxylic acid] | 1 | 1 | 0.25 | 0.125 | 0.125 |
| COc1c(-c2cc3c(s2)CCC(C)(CO)C3=O)ccc2c(=O)c(C(=O)O)cn(C3CC3)c12 (stereo not shown) [Example 207, 1-cyclopropyl-7-(5-(hydroxymethyl)-5-methyl-4-oxo-4,5,6,7-tetrahydro-1-benzothien-2-yl)-8-methoxy-4-oxo-1,4-dihydro-3-quinolinecarboxylic acid] | 0.125 | 1 | 0.125 | 0.015 | 0.5 |
| Cc1c(F)c(-c2cc3c(s2)CCCC3N)nc2c1c(=O)c(C(=O)O)cn2C1CC1.Cl (stereo not shown) [Example 367, 7-(4-amino-4,5,6,7-tetrahydro-1-benzothien-2-yl)-1-cyclopropyl-6-fluoro-5-methyl-4-oxo-1,4-dihydro-1,8-naphthyridine-3-carboxylic acid hydrochloride] | 0.125 | 0.06 | 0.03 | 0.015 | 0.03 |
| COC(=O)NC1Cc2cc(-c3ccc4c(=O)c(C(=O)O)cn(C5CC5)c4c3OC)sc2C1 (stereo not shown) [Example 251, 1-cyclopropyl-8-methoxy-7-(5-((methoxvycarbonyl)amino)-5,6-dihydro-4H-cyclopenta[b]thien-2-yl)-4-oxo-1,4-dihydro-3-quiunolinecarboxylic acid] | 0.5 | 2 | 0.125 | 0.03 | 0.25 |
| COc1c(-c2cc3c(s2)CCCC3NCc2ccccc2)ccc2c(=O)c(C(=O)O)cn(C3CC3)c12.Cl (stereo not shown) [Example 97, 7-(4-(benzylamino)-4,5,6,7-tetrahydro-1-benzothien-2-yl)-1-cyclopropyl-8-methoxn-4-oxo-1,4-dihydro-3-quinolinecarboxylic acid hydrochloride] | 0.5 | 1 | 0.25 | 0.125 | 0.5 |
| COc1c(-c2cc3c(s2)CCC(=NO)C3)ccc2c(=O)c(C(=O)O)cn(C3CC3)c12 [Example 55, 1-cyclopropyl-7-((5E/Z)-5-(hydroxyimino)-4,5,6,7-tetrahydro-1-benzothien-2-yl)-8-methoxy-4-oxo-1,4-dihydro-3-quinolinecarboxylic acid] | 0.125 | 0.5 | 0.06 | ≤ 0.004 | 0.125 |

Source: patent US20020049223A1, “Quinoline and naphthyridine carboxylic acid antibacterials” (priority 1999, published 2002)
